# Source: PubChem BioAssay AID2060909 (Molecular Pharmacology Branch, DTP, NCI, 2025)
# Test system: 362531-283-R-J2-PDC complex spheroid viability
# Assay: Anticancer human tumor 362531-283-R-J2-PDC patient-derived colon adenocarcinoma cell line growth inhibition [RAS]
# Settings: for IC50: curve of first compound; for viability, T/C: stronger effect = lower value
# In short: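 Agents were tested in combination matrices in half-log decrements from a top concentration at or near clinical Cmax (10 microM if undetermined). Targets were multi-cell spheroids of tumour lines plus HUVEC and MSC stromal cells.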
# 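Also: spheroids exposed to the agents for 7 days before readout.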
# 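For viability, T/C in this document: luminescence viability as percent of DMSO vehicle control wells.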
compound,measurement,setting,value
CC(=O)OC12COC1CC(O)C1(C)C(=O)C(O)C3=C(C)C(OC(=O)C(O)C(NC(=O)OC(C)(C)C)c4ccccc4)CC(O)(C(OC(=O)c4ccccc4)C21)C3(C)C (configuration not stated) + C=CC(=O)N1CCN(c2nc(OCC3CCCN3C)nc3c(F)c(-c4nc(N)cc(C)c4C(F)(F)F)c(Cl)cc23)C(C)C1,IC50,second compound 0.00316 µM,206 nM
same,IC50,second compound 0.01 µM,207 nM
same,IC50,second compound 0.0316 µM,212 nM
same,IC50,second compound 0.1 µM,211 nM
same,IC50,second compound 0.316 µM,194 nM
same,IC50,second compound 1 µM,219 nM
same,"viability, T/C","second compound 0.00316 µM, first compound 0.0316 µM",96.7%
same,"viability, T/C","second compound 0.00316 µM, first compound 0.1 µM",87.7%
same,"viability, T/C","second compound 0.00316 µM, first compound 0.316 µM",24.6%
same,"viability, T/C","second compound 0.00316 µM, first compound 1 µM",20.6%
same,"viability, T/C","second compound 0.00316 µM, first compound 3.16 µM",25.6%
same,"viability, T/C","second compound 0.00316 µM, first compound 10 µM",39.1%
same,"viability, T/C","second compound 0.01 µM, first compound 0.0316 µM",106%
same,"viability, T/C","second compound 0.01 µM, first compound 0.1 µM",87.8%
same,"viability, T/C","second compound 0.01 µM, first compound 0.316 µM",24.2%
same,"viability, T/C","second compound 0.01 µM, first compound 1 µM",22.8%
same,"viability, T/C","second compound 0.01 µM, first compound 3.16 µM",25.5%
same,"viability, T/C","second compound 0.01 µM, first compound 10 µM",39.8%
same,"viability, T/C","second compound 0.0316 µM, first compound 0.0316 µM",99.4%
same,"viability, T/C","second compound 0.0316 µM, first compound 0.1 µM",94.3%
same,"viability, T/C","second compound 0.0316 µM, first compound 0.316 µM",21.5%
same,"viability, T/C","second compound 0.0316 µM, first compound 1 µM",22.2%
same,"viability, T/C","second compound 0.0316 µM, first compound 3.16 µM",25.2%
same,"viability, T/C","second compound 0.0316 µM, first compound 10 µM",37.3%
same,"viability, T/C","second compound 0.1 µM, first compound 0.0316 µM",97.4%
same,"viability, T/C","second compound 0.1 µM, first compound 0.1 µM",89.1%
same,"viability, T/C","second compound 0.1 µM, first compound 0.316 µM",27%
same,"viability, T/C","second compound 0.1 µM, first compound 1 µM",20.1%
same,"viability, T/C","second compound 0.1 µM, first compound 3.16 µM",27.3%
same,"viability, T/C","second compound 0.1 µM, first compound 10 µM",40.2%
same,"viability, T/C","second compound 0.316 µM, first compound 0.0316 µM",107%
same,"viability, T/C","second compound 0.316 µM, first compound 0.1 µM",76.4%
same,"viability, T/C","second compound 0.316 µM, first compound 0.316 µM",25.3%
same,"viability, T/C","second compound 0.316 µM, first compound 1 µM",18%
same,"viability, T/C","second compound 0.316 µM, first compound 3.16 µM",34.6%
same,"viability, T/C","second compound 0.316 µM, first compound 10 µM",44.1%
same,"viability, T/C","second compound 1 µM, first compound 0.0316 µM",106%
same,"viability, T/C","second compound 1 µM, first compound 0.1 µM",86.4%
same,"viability, T/C","second compound 1 µM, first compound 0.316 µM",27.3%
same,"viability, T/C","second compound 1 µM, first compound 1 µM",23.4%
same,"viability, T/C","second compound 1 µM, first compound 3.16 µM",35.1%
same,"viability, T/C","second compound 1 µM, first compound 10 µM",45.5%
